Laboratory results reported in patent US20240366770A1, “DEGRADATION OF BRUTON'S TYROSINE KINASE (BTK) BY CONJUGATION OF BTK INHIBITORS WITH E3 LIGASE LIGAND AND METHODS OF USE” (BeiGene Switzerland GmbH, priority 2021, published 2024).
pIC50: −log10 of the molar value. Where two headings read alike, the source gives them in different places.

How the values were obtained:
BTK = biological target: T1, BTK (Homo sapiens, UniProt Q06187); assay: BTK degradation in TMD-8 cells (HTRF assay); format: cell-based; conditions: 6 h treatment, IC50 (DC50) of BTK degradation
T1 construct: High control=Cell group with added DMSO and without compound, indicating microplate readings without BTK degradation; endogenous in cells; host or cells: TMD-8
T1 sequence (Q06187 whole entry): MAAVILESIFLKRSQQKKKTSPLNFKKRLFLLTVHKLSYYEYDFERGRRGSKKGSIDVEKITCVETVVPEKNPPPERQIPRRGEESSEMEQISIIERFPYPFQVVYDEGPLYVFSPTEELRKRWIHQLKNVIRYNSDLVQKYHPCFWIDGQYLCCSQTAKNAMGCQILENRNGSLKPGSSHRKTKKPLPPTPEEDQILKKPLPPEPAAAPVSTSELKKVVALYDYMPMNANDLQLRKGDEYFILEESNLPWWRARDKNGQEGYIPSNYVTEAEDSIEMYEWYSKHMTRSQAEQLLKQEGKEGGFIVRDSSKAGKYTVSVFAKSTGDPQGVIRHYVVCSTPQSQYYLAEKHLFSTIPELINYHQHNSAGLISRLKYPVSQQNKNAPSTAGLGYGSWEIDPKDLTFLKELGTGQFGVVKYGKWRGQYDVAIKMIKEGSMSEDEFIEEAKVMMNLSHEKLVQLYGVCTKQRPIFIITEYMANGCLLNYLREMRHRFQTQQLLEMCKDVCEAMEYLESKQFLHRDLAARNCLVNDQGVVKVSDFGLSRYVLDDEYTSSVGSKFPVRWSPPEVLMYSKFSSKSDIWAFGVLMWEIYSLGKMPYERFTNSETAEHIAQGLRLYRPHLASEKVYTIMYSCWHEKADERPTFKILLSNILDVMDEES
Procedure, shortened: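 TMD-8 cells were exposed for 6 h to 8 compound doses (6-fold serial dilution, 0.2% DMSO). Lysed cells were incubated overnight at room temperature with HTRF antibodies and read at 665/620 nm. DC50 came from four-parameter fitting of % inhibition versus concentration.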

HEK-293 cells = assay: HEK-293 cytotoxicity detection (CellTiter-Glo); format: cell-based; conditions: HEK-293 cells, 72 h incubation, CellTiter-Glo luminescence, IC50 of cell proliferation inhibition, read-out: HEK293
Procedure, shortened: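 HEK-293 cells exposed 72 h to an 8-point, 4-fold dilution series (top 500× stock 5 mM in DMSO; 0.2% DMSO final). Viability by CellTiter-Glo luminescence after 10 min at room temperature; IC50 from four-parameter Hill fit of percent inhibition.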

Compound	DC50 (BTK)	pIC50 (HEK-293 cells; Homo sapiens)	pIC50 (HEK-293 cells)
Cc1c([C@@H](C)NC(=O)c2noc(C(C)(C)C)n2)ccc(-c2ncnc3[nH]c4cc(N5CCN(C6CC(c7ccc([C@@H]8CCC(=O)NC8=O)cc7)C6)CC5)ccc4c23)c1F (stereo partly drawn) [Example 31, 5-(tert-butyl)-N—((R)-1-(4-(7-(4-(3-(4-((S)-2,6-dioxopiperidin-3-yl)phenyl)cyclobutyl)piperazin-1-yl)-9H-pyrimido[4,5-b]indol-4-yl)-3-fluoro-2-methylphenyl)ethyl)-1,2,4-oxadiazole-3-carboxamide]	1.43 nM	< 5.00	–
Cc1c([C@@H](C)NC(=O)c2noc(C(C)(C)C)n2)ccc(-c2ncnc3[nH]c4cc(N5CCN(CC6CC(c7ccc(C8CCC(=O)NC8=O)cc7)C6)CC5)ccc4c23)c1F (stereo partly drawn) [Example 30, 5-(tert-butyl)-N-((1R)-1-(4-(7-(4-((3-(4-(2,6-dioxopiperidin-3-yl)phenyl)cyclobutyl)methyl)piperazin-1-yl)-9H-pyrimido[4,5-b]indol-4-yl)-3-fluoro-2-methylphenyl)ethyl)-1,2,4-oxadiazole-3-carboxamide]	4.55 nM	< 5.00	–
Cc1cc(-c2ncnc3[nH]c4cc(C5=CCN(CC6CCN(c7ccc(N8CCC(=O)NC8=O)cc7)CC6)C5)ccc4c23)ccc1[C@@H](C)NC(=O)c1nc(C(C)(C)C)no1 [Example 10, (R)-3-(tert-butyl)-N-(1-(4-(7-(1-((1-(4-(2,4-dioxotetrahydropyrimidin-1(2H)-yl)phenyl)piperidin-4-yl)methyl)-2,5-dihydro-1H-pyrrol-3-yl)-9H-pyrimido[4,5-b]indol-4-yl)-2-methylphenyl)ethyl)-1,2,4-oxadiazole-5-carboxamide]	1.51 nM	< 5.00	–
COc1cc2c(cc1N1CCN(CC3CCN(c4ccc(N5CCC(=O)NC5=O)cc4)CC3)CC1)[nH]c1ncnc(-c3cc(C)c([C@@H](C)NC(=O)c4nc(C5(C)CC5)no4)cc3F)c12 [Example 93, (R)—N-(1-(4-(7-(4-((1-(4-(2,4-dioxotetrahydropyrimidin-1(2H)-yl)phenyl)piperidin-4-yl)methyl)piperazin-1-yl)-6-methoxy-9H-pyrimido[4,5-b]indol-4-yl)-5-fluoro-2-methylphenyl)ethyl)-3-(1-methylcyclopropyl)-1,2,4-oxadiazole-5-carboxamide]	2.51 nM	< 5.00	–
Cc1cc(-c2ncnc3[nH]c4cc(N5CCN(C6CC(c7ccc([C@@H]8CCC(=O)NC8=O)cc7)C6)CC5)ccc4c23)ccc1[C@@H](C)NC(=O)c1nc(C2(C)CC2)no1 (stereo partly drawn) [Example 67, N—((R)-1-(4-(7-(4-(3-(4-((S)-2,6-dioxopiperidin-3-yl)phenyl)cyclobutyl)piperazin-1-yl)-9H-pyrimido[4,5-b]indol-4-yl)-2-methylphenyl)ethyl)-3-(1-methylcyclopropyl)-1,2,4-oxadiazole-5-carboxamide]	1.27 nM	< 5.00	–
C[C@H]1CC[C@@H](NC(=O)c2nc(C(C)(C)C)no2)CN1c1ncnc2[nH]c3cc(N4CCN(CC5CCN(c6ccc(N7CCC(=O)NC7=O)cc6)CC5)CC4)ccc3c12 [Example 129, 3-(tert-butyl)-N-((3R,6S)-1-(7-(4-((1-(4-(2,4-dioxotetrahydropyrimidin-1(2H)-yl)phenyl)piperidin-4-yl)methyl)piperazin-1-yl)-9H-pyrimido[4,5-b]indol-4-yl)-6-methylpiperidin-3-yl)-1,2,4-oxadiazole-5-carboxamide]	> 2000 nM	5.69	–
CC(C)(C)c1noc(C(=O)NCC2CCN(c3ncnc4[nH]c5cc(N6CCN(CC7CCN(c8ccc(N9CCC(=O)NC9=O)cc8)CC7)CC6)ccc5c34)CC2)n1 [Example 70, 3-(tert-butyl)-N-((1-(7-(4-((1-(4-(2,4-dioxotetrahydropyrimidin-1(2H)-yl)phenyl)piperidin-4-yl)methyl)piperazin-1-yl)-9H-pyrimido[4,5-b]indol-4-yl)piperidin-4-yl)methyl)-1,2,4-oxadiazole-5-carboxamide]	140 nM	5.70	–
Cc1cc(-c2ncnc3[nH]c4cc([C@H]5CCN(CC6CCN(c7ccc(N8CCC(=O)NC8=O)cc7)CC6)C5)ccc4c23)ccc1[C@@H](C)NC(=O)c1nc(C(C)(C)C)no1 [Example 14, 3-(tert-butyl)-N—((R)-1-(4-(7-((R)-1-((1-(4-(2,4-dioxotetrahydropyrimidin-1(2H)-yl)phenyl)piperidin-4-yl)methyl)pyrrolidin-3-yl)-9H-pyrimido[4,5-b]indol-4-yl)-2-methylphenyl)ethyl)-1,2,4-oxadiazole-5-carboxamide]	0.495 nM	5.48	–
Cc1c([C@@H](C)NC(=O)c2noc(C(C)(C)C)n2)ccc(-c2ncnc3[nH]c4cc(N5CCN(CCc6cccc7c6n(C)c(=O)n7C6CCC(=O)NC6=O)CC5)ccc4c23)c1F (stereo partly drawn) [Example 82, 5-(tert-butyl)-N-((1R)-1-(4-(7-(4-(2-(1-(2,6-dioxopiperidin-3-yl)-3-methyl-2-oxo-2,3-dihydro-1H-benzo[d]imidazol-4-yl)ethyl)piperazin-1-yl)-9H-pyrimido[4,5-b]indol-4-yl)-3-fluoro-2-methylphenyl)ethyl)-1,2,4-oxadiazole-3-carboxamide]	3.17 nM	< 5.00	–
COc1cc2c(cc1N1CCN(Cc3ccc4c(c3)C(C)(C)C(=O)N4C3CCC(=O)NC3=O)CC1)[nH]c1ncnc(-c3ccc([C@@H](C)NC(=O)c4nc(C5(C)CC5)no4)c(C)c3)c12 (stereo partly drawn) [Example 74, N-((1R)-1-(4-(7-(4-((1-(2,6-dioxopiperidin-3-yl)-3,3-dimethyl-2-oxoindolin-5-yl)methyl)piperazin-1-yl)-6-methoxy-9H-pyrimido[4,5-b]indol-4-yl)-2-methylphenyl)ethyl)-3-(1-methylcyclopropyl)-1,2,4-oxadiazole-5-carboxamide]	2.04 nM	< 5.00	–
Cc1cc(-c2ncnc3[nH]c4c(c23)CCC(N2CCN(C3CC(c5ccc([C@H]6CCC(=O)NC6=O)cc5)C3)CC2)C4)ccc1[C@@H](C)NC(=O)c1nc(C(C)(C)C)no1 (stereo partly drawn) [Example 133, 3-(tert-butyl)-N-((1R)-1-(4-(7-(4-(3-(4-((R)-2,6-dioxopiperidin-3-yl)phenyl)cyclobutyl)piperazin-1-yl)-6,7,8,9-tetrahydro-5H-pyrimido[4,5-b]indol-4-yl)-2-methylphenyl)ethyl)-1,2,4-oxadiazole-5-carboxamide]	> 2000 nM	< 5.00	–
Cc1cc(-c2ncnc3[nH]c4cc(N5CCN([C@H]6C[C@@H](c7ccc(NC8CCC(=O)NC8=O)cc7)C6)CC5)ccc4c23)ccc1[C@@H](C)NC(=O)c1nc(C2(C)CC2)no1 (stereo partly drawn) [Example 115, N-((1R)-1-(4-(7-(4-((1s,3s)-3-(4-((2,6-dioxopiperidin-3-yl)amino)phenyl)cyclobutyl)piperazin-1-yl)-9H-pyrimido[4,5-b]indol-4-yl)-2-methylphenyl)ethyl)-3-(1-methylcyclopropyl)-1,2,4-oxadiazole-5-carboxamide]	0.759 nM	< 5.00	–
5-(tert-butyl)-N—((R)-1-(4-(7-(4-(3-(4-((R)-2,6-dioxopiperidin-3-yl)phenyl)cyclobutyl)piperazin-1-yl)-9H-pyrimido[4,5-b]indol-4-yl)-3-fluoro-2-methylphenyl)ethyl)-1,2,4-oxadiazole-3-carboxamide [Example 32]	9.03 nM	–	< 5.00
COc1cc2c(cc1N1CCN(Cc3ccc4c(c3)C(C)(C)C(=O)N4C3CCC(=O)NC3=O)CC1)[nH]c1ncnc(-c3cc(C)c([C@@H](C)NC(=O)c4nc(C(C)(C)C)no4)cc3F)c12 (stereo partly drawn) [Example 83, 3-(tert-butyl)-N-((1R)-1-(4-(7-(4-((1-(2,6-dioxopiperidin-3-yl)-3,3-dimethyl-2-oxoindolin-5-yl)methyl)piperazin-1-yl)-6-methoxy-9H-pyrimido[4,5-b]indol-4-yl)-5-fluoro-2-methylphenyl)ethyl)-1,2,4-oxadiazole-5-carboxamide]	2.42 nM	< 5.00	–
Cc1cc(-c2ncnc3[nH]c4cc(N5CCN(C6CC(c7ccc([C@H]8CCC(=O)NC8=O)cc7)C6)CC5)ccc4c23)c(F)cc1[C@@H](C)NC(=O)c1nc(C2(C)CC2)no1 (stereo partly drawn) [Example 96, N—((R)-1-(4-(7-(4-(3-(4-((R)-2,6-dioxopiperidin-3-yl)phenyl)cyclobutyl)piperazin-1-yl)-9H-pyrimido[4,5-b]indol-4-yl)-5-fluoro-2-methylphenyl)ethyl)-3-(1-methylcyclopropyl)-1,2,4-oxadiazole-5-carboxamide]	2.98 nM	< 5.00	–
Cc1cc(-c2ncnc3[nH]c4cc(N5CCN(CCc6ccc(N7CCC(=O)NC7=O)cn6)CC5)ccc4c23)ccc1[C@@H](C)NC(=O)c1nc(C(C)(C)C)no1 [Example 19, (R)-3-(tert-butyl)-N-(1-(4-(7-(4-(2-(5-(2,4-dioxotetrahydropyrimidin-1(2H)-yl)pyridin-2-yl)ethyl)piperazin-1-yl)-9H-pyrimido[4,5-b]indol-4-yl)-2-methylphenyl)ethyl)-1,2,4-oxadiazole-5-carboxamide]	0.564 nM	5.25	–
